Data published in patent US20210106601A1, “MANGIFERIN AS A PROTECTIVE AGENT AGAINST MITOCHONDRIAL DNA DAMAGE AND SKIN-CARE COMPOSITIONS COMPRISING SAME” (priority 2018, published 2021).
In brackets after ≈: the same amount, converted by molar mass. Several values for one entry are separate records, joined by “and”; a condition that tells them apart may be missing. Equal entries are not always repeated.

Experiments:
HDFn cells [1] = assay: mtDNA damage after UV irradiation (1 kb real-time qPCR assay); type: cell-based, human; conditions: UV 2 SED
Protocol: 1,000 μg/ml solutions of mangiferin extract were prepared as outlined in Example 1 above. 3 ml of the mangiferin solution was added to a 45 mm diameter quartz glass petri dish. Quartz was chosen as it is known to permit both UVA and UVB rays to pass through. The quartz glass dish was then placed on top of a slightly smaller dish containing the cultured HDFn cells. The cells were then irradiated through the quartz glass petri dish, using either a Cleo Performance (iSOLde, Germany) or Aramid B (Cosmedico, Germany) lamp at 2 standard erythemal doses (SED). […]
Following irradiation, total DNA was extracted and mtDNA damage analysed using a 1 kb real-time qPCR assay. mtDNA damage is expressed as a Ct value (where a 1 Ct difference is equivalent to a 2-fold difference in damage), and is based on the observation that damaged mtDNA takes longer to be amplified via qPCR. To find the acellular UV transmission of extracts, the dish containing the diluted extract was placed on top of a spectroradiometer and the amount of UV which passes through the dish was measured. All statistical differences were determined using one-way ANOVA with Dunnett's test to compare to a control column (0.05*, P<0.01**, P<0.001***). […]

[2] = Solubility of mangiferin in deionised water; type: physicochemical
Protocol: In order to assess the solubility of mangiferin in aqueous solution, 0.18 g of mangiferin was added to 100 mls of deionised water. […] The solution was then Buchner filtered, and the mass of the undissolved material weighed. Solubility was calculated based on the difference between the initial mass of mangiferin and that of the undissolved material.

HDFn cells [3] = assay: Cell viability assay (MTS cell proliferation assay); type: cell-based; conditions: unfiltered extract, 50 to 50,000 μg/ml, 24 hours incubation
Protocol: Stock solutions of mangiferin were made by dissolving mangiferin extract in water, and diluting to the required concentration. The stock solutions were then added to HDFn cells at a range of concentrations from 50 μg/ml to 50,000 μg/ml, and incubated for 24 hours under standard culture conditions.

UV absorbance scan = type: physicochemical; conditions: 1,000 μg/ml, quartz cell
Protocol: A UV absorbance scan was performed on mangiferin extract at a concentration of 1,000 μg/ml, and the results are shown in FIG. 6. The spectrometer was set up using a quartz cell with a 1.05 ms integration time (the minimum for the spectrometer) and the spectra was based on an average of 100 samples.
UV absorbance scans were performed on stock solutions of the mangiferin-complexes prepared in example 8 above and the results are shown in FIG. 7. The spectrometer was set up using a quartz cell with a 1.05 ms integration time (the minimum for the spectrometer) and the spectra was based on an average of 100 samples. The mangiferin-only solution required to be diluted to 25% of its original concentration to reach the point at which it no longer saturated the spectrometer, while mangiferin-complex solutions were diluted to 2.5%. However, good absorbance was then observed for all of the samples, with the characteristic peaks at ^˜320 nm and ^˜370 nm clearly visible.

## O=c1c2cc(O)c(O)cc2oc2cc(O)c(C3OC(CO)C(O)C(O)C3O)c(O)c12 (stereo not shown) [mangiferin, 1,3,6,7-tetrahydroxy-2-[3,4,5-trihydroxy-6-(hydroxymethyl)oxan-2-yl]xanthen-9-one]
HDFn cells [1]; 1,000 μg/ml solution in quartz dish above cells, water control 3.1 Cts
  increase in mtDNA damage compared with foil-wrapped (non-irradiated) samples: 1.6 Cts
HDFn cells [1]; 1,000 μg/ml, 1 Ct = 2-fold, water control approximately 8-fold
  fold increase in mtDNA damage compared with foil-wrapped samples: approximately 3 fold
[2]; even after stirring for 24 hours
  solubility in water (in words): very insoluble in water
[2]; thermodynamic from solid, deionised water, 40° C., 500 rpm, stirring time 4 hours
  solubility at 4 h: 43 µg/mL (≈ 102 µM)
[2]; thermodynamic from solid, deionised water, 40° C., 500 rpm, stirring time 24 hours
  solubility at 24 h: 139 µg/mL (≈ 329 µM)
HDFn cells [3]
  concentration up to which cell viability is seen (cell death above): ~5,000 μg/ml
UV absorbance scan
  UV absorbance peaks: ~320 nm and ~370 nm
